Laboratory results as given in article PMC6136712, “Ex vivo drug sensitivity testing as a means for drug repurposing in esophageal adenocarcinoma” (PLoS ONE, 2018).
Counter-ions that a name gives are not always drawn.

System: normal esophageal epithelium cell line EACN42
Assay: FDA library drug sensitivity testing (CellTiter-Glo, 72 h), normal control cells
Format: cell-based, human
Set-up: key to DSS: modified drug sensitivity score (DSSmod) from dose-response curve fit
Conditions: EACN42 normal esophageal cells, 72 h; for EC50: cell viability (ATP), max test concentration 10μM; for DSS: drug sensitivity score
Procedure: The normal esophageal epithelium cell line EACN42 was established in the Capobianco laboratory. The cell lines was derived from human normal epithelium and immortalized using HPV E6-E7.
Drug sensitivity testing (DST) was performed as described previously. […] Individual drugs were dissolved in 100% DMSO and tested in duplicates starting at a maximal test concentration of 10μM then over a 20,000-fold concentration range to generate dose response curves. Wells with assay buffer containing DMSO served as negative controls. 1000 exponentially growing cells were seeded per well in 384-well micro-titer plates and incubated in the presence of compounds in a humidified environment at 37°C and 5% CO2. After 72 hours of treatment, cell viability was assessed by measuring ATP levels via bioluminescence (CellTiter-Glo, Promega) according to manufactures recommendations. Interpretation of curve parameters was performed according to the modified drug sensitivity scoring (DSSmod) function developed by Swords et al. […] Given in this way, the sDSSmod incorporated information on each drug’s potency, efficacy, effect range and therapeutic index, making it possible to prioritize compounds over multiple parameters using a single numerical metric. […] All calculations and scoring routines are implemented in MatLab and additional curve fitting and statistical analyses are performed in GraphPad prism.

Row | Structure (SMILES) | EC50 | DSS | EC50 (Homo sapiens)
1 | CN[C@H]1C[C@@H](N)[C@H](O)[C@@H](O[C@@H]2O[C@H](CO)[C@H](O)[C@@H]3OC4(O[C@H]23)O[C@H]([C@@H](N)CO)[C@H](O)[C@H](O)[C@H]4O)[C@@H]1O (stereo partly drawn) [Hygromycin B] | 7770 nM | 3.8 | –
2 | O=P1(NCCCl)OCCCN1CCCl (stereo not drawn) [Ifosfamide] | – | 0 | –
3 | Cc1ccc(NC(=O)c2ccc(CN3CCN(C)CC3)cc2)cc1Nc1nccc(-c2cccnc2)n1 [Imatinib] | – | 0 | –
4 | CC(C)Cn1cnc2c(N)nc3ccccc3c21 [Imiquimod] | – | 0 | 2000 nM
5 | CC1=C(/C=C/C(C)=C/C=C/C(C)=C\C(=O)O)C(C)(C)CCC1 [Isotretinoin] | – | 0 | –
6 | CCC(C)n1ncn(-c2ccc(N3CCN(c4ccc(OCC5COC(Cn6cncn6)(c6ccc(Cl)cc6Cl)O5)cc4)CC3)cc2)c1=O (stereo not drawn) [Itraconazole] | – | 0 | –
7 | Cl.N=C(N)NCCC[C@H](N)C(=O)O [L-Arginine HCl] | 10 nM | 0 | –
8 | Nc1nnc(-c2cccc(Cl)c2Cl)c(N)n1 [Lamotrigine] | – | 0 | –
9 | CS(=O)(=O)CCNCc1ccc(-c2ccc3ncnc(Nc4ccc(OCc5cccc(F)c5)c(Cl)c4)c3c2)o1 [Lapatinib] | – | 0 | 40 nM
10 | Nc1cccc2c1CN(C1CCC(=O)NC1=O)C2=O (stereo not drawn) [Lenalidomide] | – | 0 | –
11 | N#Cc1ccc(C(c2ccc(C#N)cc2)n2cncn2)cc1 [Letrozole] | – | 0 | 60 nM
12 | Nc1nc2c(c(=O)[nH]1)N(C=O)C(CNc1ccc(C(=O)N[C@@H](CCC(=O)O)C(=O)O)cc1)CN2 (stereo partly drawn) [Leucovorin Calcium] | – | 0.04 | 90 nM
13 | CC#CCn1c(N2CCC[C@@H](N)C2)nc2c1c(=O)n(Cc1nc(C)c3ccccc3n1)c(=O)n2C [Linagliptin] | – | 0 | 380 nM
14 | CCC[C@@H]1C[C@@H](C(=O)N[C@@H]([C@H]2O[C@H](SC)[C@H](O)[C@@H](O)[C@H]2O)[C@@H](C)O)N(C)C1 [Lincomycin hydrochloride] | – | 0 | 990 nM
15 | O=NN(CCCl)C(=O)NC1CCCCC1 [Lomustine] | – | 0 | –
16 | O=C(O)c1nn(Cc2ccc(Cl)cc2Cl)c2ccccc12 [Lonidamine] | – | 0 | –
17 | Cc1ccc(NC(=O)c2ccc(CN3CCN(C)CC3)cc2)cc1Nc1nc(-c2cccnc2)cs1 [Masitinib] | – | 0 | –
18 | CC(=O)O[C@]1(C(C)=O)CC[C@H]2[C@@H]3C[C@H](C)C4=CC(=O)CC[C@]4(C)[C@H]3CC[C@@]21C [Medroxyprogesterone acetate] | – | 0 | –
19 | CC(=O)O[C@]1(C(C)=O)CC[C@H]2[C@@H]3C=C(C)C4=CC(=O)CC[C@]4(C)[C@H]3CC[C@@]21C [Megestrol Acetate] | – | 0 | –
20 | C=C1c2cccc(O)c2C(=O)C2=C(O)[C@]3(O)C(=O)C(C(N)=O)=C(O)[C@@H](N(C)C)[C@@H]3[C@@H](O)[C@H]12 [Methacycline hydrochloride] | – | 0 | > 10000 nM
21 | Cn1nnc2c(C(N)=O)ncn2c1=O [Methazolastone] | – | 0 | –
22 | CC#C[C@]1(O)CC[C@H]2[C@@H]3CCC4=CC(=O)CCC4=C3[C@@H](c3ccc(N(C)C)cc3)C[C@@]21C [Mifepristone] | – | 0 | –
23 | Nc1nc(CC(=O)Nc2ccc(CCNC[C@H](O)c3ccccc3)cc2)cs1 [Mirabegron] | – | 0 | 20 nM
24 | Clc1ccc(C(c2ccccc2Cl)C(Cl)Cl)cc1 (stereo not drawn) [Mitotane] | – | 0 | 6 nM
25 | NC(=O)c1ncn([C@@H]2O[C@H](CO)[C@@H](O)[C@H]2O)c1O [Mizoribine] | – | 0 | 6 nM
26 | N=C(N)/N=C(\N)N1CCOCC1 [Moroxydine] | – | 0 | –
27 | C=CCN1CC[C@]23c4c5ccc(O)c4O[C@H]2C(=O)CC[C@@]3(O)[C@H]1C5 [Naloxone HCl] | – | 0 | –
28 | COc1nc(N)nc2c1ncn2[C@@H]1O[C@H](CO)[C@@H](O)[C@@H]1O [Nelarabine] | – | 0 | –
29 | COC(=O)C1=C(C#N)NC(C)=C(C(=O)OC(C)C)C1c1cccc([N+](=O)[O-])c1 (stereo not drawn) [Nilvadipine] | – | 0 | 10 nM
